Columns and labels:
B16F10 cells [1] = experiment: Mitochondrial staining (MitoTracker Red CMXRos), B16F10 cells; type: cell-based, murine; conditions: 50 µM
Description: Figure 2 Psd1 promotes B16F10 live cell membrane permeabilization as monitored by SYTOX Green fluorescence. (A) Psd1 untreated and hydrogen peroxide-treated B16F10 cells. (B) A total of 1.5 × 10^4 B16F10 cells were incubated with 3 or 50 µM Psd1 for 30 min. (C) 1.5 × 10^4 B16F10 cells were incubated with 50 µM Psd1 for 1 h. All experiments were performed at 37 °C. Nucleus staining is shown in green (SYTOXGreen), and mitochondria are shown in red (MitoTracker Red CMXRos). Images are shown at 20× magnification. […] (E) Psd1 induces apoptosis in B16F10 cells. B16F10 cells were treated with 50 µM Psd1 for 24 h and labeled with propidium iodide, and the DNA content was analyzed by flow cytometry for the sub-G0/G1 profile. […]
Figure 3 Fluorescein isothiocyanate (FITC)-Psd1 was localized in the B16F10 live cell nucleus. […] (C) The mean fluorescence intensity (MIF) of MitoTracker and FITC-Psd1 labeled cells measured over time. […]
Images were obtained in the X, Y, and Z planes of the image, giving the image a 3-dimensional depth (Z-stack) at 100× magnification with a Zeiss Cell Observer Yokogawa Spinning Disk confocal microscope (Cell Observed SD, Carl-Zeiss, Oberkochen, Germany) located in the Microscopia Óptica de Luz Gustavo de Oliveira Castro (Plamol) platform in Universidade Federal do Rio de Janeiro. […] On average, thirty cells per field were analyzed in fourteen fields by experiments. […]

[2] = system: fungal mutants lacking glucosylceramide synthase; conditions: cited from earlier work
recombinant cyclin F-GST = experiment: Surface plasmon resonance, Psd1-cyclin F interaction; type: binding
Description: Surface plasmon resonance (SPR) assays were run on a Biacore X (GE Healthcare Life Sciences, Amersham, UK) apparatus in real time using a CM5 sensor chip at 25 °C. Briefly, CM5 chip activation was performed by injection of 100 µL of a 1:1 mixture of amine coupling kit (750 mg 1-ethyl-3-(3-dimethylaminopropyl) carbodiimide hydrochloride (EDC), 115 mg N-hydroxysuccinimide (NHS), 2 × 10.5 mL 1.0 M ethanolamine-HCl pH 8.5) with a continuous flow of 2 µL/min. Then, 100 µL of […] recombinant cyclin F-GST diluted in 10 mM sodium acetate pH 4.0 buffer was immobilized by amine coupling onto the carboxylate dextran layer of CM5 with the same flow. This was injected with 80 µL of 1 M ethanolamine pH 8.0 to block the remaining binding free sites of the protein. To evaluate the interaction of Psd1 with the cyclin F protein, increasing concentrations of the peptide (10–240 µM) in 100 µL of running buffer (10 mM HEPES, 150 mM NaCl, pH 7.4) were injected using a flow rate of 15 µL/min for 4 min. After the injection ended, the dissociation phase was measured in not less than 300 s. The Psd1-GST-cyclin F interaction curves were subtracted from the respective curves obtained for Psd1-GST to discount possible artifact interactions with GST alone. […]

B16F10 cells [3] = experiment: SYTOXGreen uptake (membrane permeabilization), B16F10 cells; type: cell-based, murine
Description: Figure 2 Psd1 promotes B16F10 live cell membrane permeabilization as monitored by SYTOX Green fluorescence. (A) Psd1 untreated and hydrogen peroxide-treated B16F10 cells. (B) A total of 1.5 × 10^4 B16F10 cells were incubated with 3 or 50 µM Psd1 for 30 min. (C) 1.5 × 10^4 B16F10 cells were incubated with 50 µM Psd1 for 1 h. All experiments were performed at 37 °C. Nucleus staining is shown in green (SYTOXGreen), and mitochondria are shown in red (MitoTracker Red CMXRos). Images are shown at 20× magnification. […] (E) Psd1 induces apoptosis in B16F10 cells. B16F10 cells were treated with 50 µM Psd1 for 24 h and labeled with propidium iodide, and the DNA content was analyzed by flow cytometry for the sub-G0/G1 profile. At least two independent experiments were performed. TEXT PRINTED IN THE PICTURE: (E) Control: Sub-G1: 4.4% | (E) Psd1: Sub-G1: 60.6% (50μM)
Images were obtained in the X, Y, and Z planes of the image, giving the image a 3-dimensional depth (Z-stack) at 100× magnification with a Zeiss Cell Observer Yokogawa Spinning Disk confocal microscope (Cell Observed SD, Carl-Zeiss, Oberkochen, Germany) located in the Microscopia Óptica de Luz Gustavo de Oliveira Castro (Plamol) platform in Universidade Federal do Rio de Janeiro. To measure the mean fluorescence intensity (MFI), Zen Lite Blue (Carl-Zeiss, Oberkochen, Germany) software was used. On average, thirty cells per field were analyzed in fourteen fields by experiments. Then, the region of interest (ROI), specifically the nucleus and mitochondria, was tagged on the cells photographed for fluorescence analysis, which is given by the software from the intensity of the pixels. Subsequently, the statistical test was performed using GraphPad Prism version 7.4, and the values presented are averages with the corresponding standard deviations (SDs).
B16F10 cells were trypsinized and counted, and 1.5 × 10^4 cells/well in DMEM containing 0.1% (w/v) bovine serum albumin BSA were plated in a cell-view glass bottom culture dish with four compartments (Thermo Fisher Scientific Inc, Maryland, USA) and then incubated at 37 °C overnight to adhere. Post-treatment, the cells were treated with 3 or 50 µM Psd1 for 30 or 60 min and maintained at the same temperature. Cells treated with only water or 0.0001% H2O2 for 30 min were used as the negative and positive controls, respectively. Washes with saline were carried out between the additions of each probe followed by incubation at room temperature. The cells were incubated with 1 µL of SG, 1.5 µL of MitoTracker Red CMXRos, and 2 µL of DAPI for 10, 20, and 10 min, respectively. The fluorescent images were acquired by confocal microscopy.

Psd1: 46-amino acid residue plant defensin isolated from pea seeds, expressed in Pichia pastoris (PDB 1JKZ) (KTCEHLADTYRGVCFTNASCDDHCKNKAHLISGTCHNWKCFCTQNC)
Mitochondria red marker (MitoTracker) (B16F10 cells [1]; 30 min): lower mitochondria red marker | Mitochondria red fluorescence (MitoTracker) (B16F10 cells [1]; 1 h, probably superposition of SYTOXGreen and MitoTracker signals): brighter red fluorescence signal | Resistance of mutants to Psd1 antifungal activity and permeabilization [2]: partially resistant | SPR association phase, onset of response (recombinant cyclin F-GST; after Psd1 injection, 15 µL/min, 4 min): 80 s | SPR dissociation phase (recombinant cyclin F-GST; after injection ended): full dissociation phase was observed | SYTOXGreen entrance, nuclear staining (B16F10 cells [3]; 3 µM and 50 µM, 30 min, 37 °C): intense green nuclear staining | Cell adhesion / shape (B16F10 cells [3]; 50 µM, 1 h): started to lose their adhesion capacity, assuming a less spread shape | SYTOXGreen fluorescence signal (B16F10 cells [3]; 50 µM, 1 h, 37 °C, p < 0.0001 vs 3 and 50 µM for 30 min): increased significantly

Reference: publication PMC7219108, “Pisum sativum Defensin 1 Eradicates Mouse Metastatic Lung Nodules from B16F10 Melanoma Cells” (International Journal of Molecular Sciences, 2020)
